In patent EP0048613B1, “4-0-Substituted -2-deoxystreptamine aminoglycoside derivatives, their preparation and formulations containing them” (ELI LILLY AND COMPANY, priority 1980, dated 1982):
Values after ≈ are worked out from the molar mass of the structure shown.

Legend:
[1] = tested on: Staphylococcus aureus 3055; assay: Subcutaneous therapy of experimental bacterial infection in mice; assay type: in vivo; details: subcutaneous doses at 1 and 5 hours post infection
Protocol: Table II illustrates the effective dose (ED50, effective dose to protect 50 percent of the test animals) for representative compounds of this invention against an experimental bacterial infection in mice.
The EDso values were determined as described by W. E. Wick et al., Journal of Bacteriology, 81 [No. 2], 233-235 (1961).

[2] = tested on: Streptococcus group D X66; assay: MIC, standard agar dilution test; assay type: cell-based
Description: (§1) The antibacterial activity of the deprotected compounds of this invention is illustrated by the following in vitro and in vivo test data obtained with representative compounds. In Table I, the minimum inhibitory concentration (MIC) for representative compounds against a wide range of gram-positive and gram-negative bacteria is presented. The MIC values were obtained by the standard agar dilution test.

[3] = tested on: Klebsiella pneumoniae X26; assay: MIC, standard agar dilution test; assay type: cell-based
Description: as §1

[4] = tested on: Enterobacter aerogenes C32; assay: MIC, standard agar dilution test; assay type: cell-based
Description: as §1

[5] = tested on: Staphylococcus aureus X1.1; assay: MIC, standard agar dilution test; assay type: cell-based
Description: as §1

[6] = tested on: Salmonella typhimurium 1335; assay: MIC, standard agar dilution test; assay type: cell-based
Description: as §1

[7] = tested on: Staphylococcus epidermidis EPI2; assay: MIC, standard agar dilution test; assay type: cell-based
Description: as §1

[8] = tested on: Klebsiella pneumoniae KAE; assay: MIC, standard agar dilution test; assay type: cell-based
Description: as §1

[9] = tested on: Staphylococcus epidermidis EPI1; assay: MIC, standard agar dilution test; assay type: cell-based; details: for Minimum inhibitory concentration: Staphylococcus epidermidis EPI1, agar dilution
Description: as §1

[10] = tested on: Enterobacter cloacae 265A; assay: MIC, standard agar dilution test; assay type: cell-based
Description: as §1

[11] = tested on: Proteus inconstans PR33; assay: MIC, standard agar dilution test; assay type: cell-based
Description: as §1

[12] = tested on: Streptococcus group D 9960; assay: MIC, standard agar dilution test; assay type: cell-based
Description: as §1

[13] = tested on: Staphylococcus aureus X400; assay: MIC, standard agar dilution test; assay type: cell-based
Description: as §1

[14] = tested on: Escherichia coli TEM; assay: MIC, standard agar dilution test; assay type: cell-based; details: for Minimum inhibitory concentration: Escherichia coli TEM, agar dilution
Description: as §1

[15] = tested on: Shigella sonnei N9; assay: MIC, standard agar dilution test; assay type: cell-based
Description: as §1

[16] = tested on: Streptococcus pneumoniae Park I; assay: MIC, standard agar dilution test; assay type: cell-based; details: for Minimum inhibitory concentration: Streptococcus pneumoniae Park I, agar dilution
Description: as §1

[17] = tested on: Streptococcus pyogenes C203; assay: MIC, standard agar dilution test; assay type: cell-based
Description: as §1

[18] = tested on: Proteus rettgeri C24; assay: MIC, standard agar dilution test; assay type: cell-based
Description: as §1

[19] = tested on: Escherichia coli EC14; assay: MIC, standard agar dilution test; assay type: cell-based
Description: as §1

[20] = tested on: Proteus morganii PR15; assay: MIC, standard agar dilution test; assay type: cell-based
Description: as §1

[21] = tested on: Proteus rettgeri PR7; assay: MIC, standard agar dilution test; assay type: cell-based
Description: as §1

[22] = tested on: Enterobacter aerogenes X68; assay: MIC, standard agar dilution test; assay type: cell-based
Description: as §1

[23] = tested on: Enterobacter cloacae EB5; assay: MIC, standard agar dilution test; assay type: cell-based
Description: as §1

[24] = tested on: Enterobacter aerogenes EB17; assay: MIC, standard agar dilution test; assay type: cell-based
Description: as §1

[25] = tested on: Pseudomonas aeruginosa X528; assay: MIC, standard agar dilution test; assay type: cell-based
Description: as §1

[26] = tested on: Staphylococcus aureus S13E; assay: MIC, standard agar dilution test; assay type: cell-based; details: for Minimum inhibitory concentration: Staphylococcus aureus S13E, agar dilution
Description: as §1

[27] = tested on: Hemophilus influenzae 76; assay: MIC, standard agar dilution test; assay type: cell-based
Description: as §1

[28] = tested on: Hemophilus influenzae C.L.; assay: MIC, standard agar dilution test; assay type: cell-based
Description: as §1

[29] = tested on: Serratia marcescens SE3; assay: MIC, standard agar dilution test; assay type: cell-based
Description: as §1

[30] = tested on: Salmonella heidelberg X514; assay: MIC, standard agar dilution test; assay type: cell-based
Description: as §1

[31] = tested on: Pseudomonas aeruginosa X239; assay: MIC, standard agar dilution test; assay type: cell-based
Description: as §1

[32] = tested on: Pseudomonas aeruginosa Ps18; assay: MIC, standard agar dilution test; assay type: cell-based
Description: as §1

[33] = tested on: Escherichia coli N10; assay: MIC, standard agar dilution test; assay type: cell-based
Description: as §1

[34] = tested on: Staphylococcus aureus V41; assay: MIC, standard agar dilution test; assay type: cell-based
Description: as §1

[35] = tested on: Citrobacter freundii CF17; assay: MIC, standard agar dilution test; assay type: cell-based
Description: as §1

[36] = tested on: Bordetella bronchiseptica 16; assay: MIC, standard agar dilution test; assay type: cell-based
Description: as §1

[37] = tested on: Serratia marcescens X99; assay: MIC, standard agar dilution test; assay type: cell-based
Description: as §1

[38] = read-out: Minimum inhibitory concentration
[39] = Klebsiella aerogenes, read-out: Minimum inhibitory concentration
[40] = Salmonella enterica, read-out: Minimum inhibitory concentration
[41] = Providencia rettgeri, read-out: Minimum inhibitory concentration
[42] = Haemophilus influenzae, read-out: Minimum inhibitory concentration

## 2′-N-(RS-γ-Amino-α-hydroxybutyryl)apramycin [Test compound 2]
[1]; challenged with 331 LD50's
  Effective dose (ED50): 21.8^2 mg/kg×2
[2]
  Minimum inhibitory concentration: >128 µg/mL
[3]
  Minimum inhibitory concentration: 8 µg/mL
[4]
  Minimum inhibitory concentration: 16 µg/mL
[5]
  Minimum inhibitory concentration: 16 µg/mL
[6]
  Minimum inhibitory concentration: 32 µg/mL
[7]
  Minimum inhibitory concentration: 8 µg/mL
[8]
  Minimum inhibitory concentration: 32 µg/mL
[9]
  Minimum inhibitory concentration: 16 µg/mL
[10]
  Minimum inhibitory concentration: 64 µg/mL
[11]
  Minimum inhibitory concentration: 32 µg/mL
[12]
  Minimum inhibitory concentration: >128 µg/mL
[13]
  Minimum inhibitory concentration: 64 µg/mL
[14]
  Minimum inhibitory concentration: 8 µg/mL
[15]
  Minimum inhibitory concentration: 32 µg/mL
[16]
  Minimum inhibitory concentration: 32 µg/mL
[17]
  Minimum inhibitory concentration: 32 µg/mL
[18]
  Minimum inhibitory concentration: 16 µg/mL
[19]
  Minimum inhibitory concentration: 32 µg/mL
[20]
  Minimum inhibitory concentration: 128 µg/mL
[21]
  Minimum inhibitory concentration: 16 µg/mL
[22]
  Minimum inhibitory concentration: 16 µg/mL
[23]
  Minimum inhibitory concentration: 32 µg/mL
[24]
  Minimum inhibitory concentration: 32 µg/mL
[25]
  Minimum inhibitory concentration: 128 µg/mL
[26]
  Minimum inhibitory concentration: 16 µg/mL
[27]
  Minimum inhibitory concentration: 32 µg/mL
[28]
  Minimum inhibitory concentration: 32 µg/mL
[29]
  Minimum inhibitory concentration: 32 µg/mL
[30]
  Minimum inhibitory concentration: 32 µg/mL
[31]
  Minimum inhibitory concentration: 128 µg/mL
[32]
  Minimum inhibitory concentration: 128 µg/mL
[33]
  Minimum inhibitory concentration: 16 µg/mL
[34]
  Minimum inhibitory concentration: 32 µg/mL
[35]
  Minimum inhibitory concentration: 32 µg/mL
[36]
  Minimum inhibitory concentration: 128 µg/mL
[37]
  Minimum inhibitory concentration: 16 µg/mL

## 2′-N-(S-γ-Amino-α-hydroxybutyryl)nebramine [Test compound 5]
[1]; challenged with 1794 LD50's
  Effective dose (ED50): >70^3 mg/kg×2
[2]
  Minimum inhibitory concentration: >128 µg/mL
[3]
  Minimum inhibitory concentration: 64 µg/mL
[4]
  Minimum inhibitory concentration: 64 µg/mL
[5]
  Minimum inhibitory concentration: 32 µg/mL
[6]
  Minimum inhibitory concentration: 128 µg/mL
[7]
  Minimum inhibitory concentration: 32 µg/mL
[8]
  Minimum inhibitory concentration: 64 µg/mL
[9]
  Minimum inhibitory concentration: 64 µg/mL
[10]
  Minimum inhibitory concentration: >128 µg/mL
[11]
  Minimum inhibitory concentration: 64 µg/mL
[12]
  Minimum inhibitory concentration: >128 µg/mL
[13]
  Minimum inhibitory concentration: 64 µg/mL
[14]
  Minimum inhibitory concentration: 32 µg/mL
[15]
  Minimum inhibitory concentration: 64 µg/mL
[16]
  Minimum inhibitory concentration: 128 µg/mL
[17]
  Minimum inhibitory concentration: 128 µg/mL
[18]
  Minimum inhibitory concentration: 64 µg/mL
[19]
  Minimum inhibitory concentration: >128 µg/mL
[20]
  Minimum inhibitory concentration: 64 µg/mL
[21]
  Minimum inhibitory concentration: 32 µg/mL
[22]
  Minimum inhibitory concentration: 64 µg/mL
[23]
  Minimum inhibitory concentration: 128 µg/mL
[24]
  Minimum inhibitory concentration: 64 µg/mL
[25]
  Minimum inhibitory concentration: >128 µg/mL
[26]
  Minimum inhibitory concentration: 32 µg/mL
[27]
  Minimum inhibitory concentration: 64 µg/mL
[28]
  Minimum inhibitory concentration: 64 µg/mL
[29]
  Minimum inhibitory concentration: >128 µg/mL
[30]
  Minimum inhibitory concentration: 128 µg/mL
[31]
  Minimum inhibitory concentration: 128 µg/mL
[32]
  Minimum inhibitory concentration: 128 µg/mL
[33]
  Minimum inhibitory concentration: 128 µg/mL
[34]
  Minimum inhibitory concentration: 64 µg/mL
[35]
  Minimum inhibitory concentration: 64 µg/mL
[36]
  Minimum inhibitory concentration: >128 µg/mL
[37]
  Minimum inhibitory concentration: 128 µg/mL

## CNC1C(OC2OC(CO)C(N)C(O)C2O)OC2CC(NC(=O)C(O)CCN)C(OC3C(N)CC(N)C(O)C3O)OC2C1O (stereo not drawn) [Test compound 1, 2′-N-(S-γ-Amino-α-hydroxybutyryl)apramycin]
[1]; Staphylococcus aureus, 3055, sc, challenged with 68.1 LD50's, read-out: Effective dose (ED50)
  ED50: 6.5 mg/kg
[2]; DX66, read-out: Minimum inhibitory concentration
  MIC: > 128 µg/mL
[3]; [38]
  MIC: 8 µg/mL (≈ 12.5 µM)
[4]; [39]
  MIC: 16 µg/mL (≈ 25 µM)
[5]; [38]
  MIC: 16 µg/mL (≈ 25 µM)
[6]; [40]
  MIC: 16 µg/mL (≈ 25 µM)
[7]; [38]
  MIC: 4 µg/mL (≈ 6.24 µM)
[8]; [38]
  MIC: 16 µg/mL (≈ 25 µM)
[9]; Staphylococcus epidermidis, EPI1, read-out: Minimum inhibitory concentration
  MIC: 16 µg/mL (≈ 25 µM)
[10]; [38]
  MIC: 64 µg/mL (≈ 99.9 µM)
[11]; Providencia alcalifaciens, read-out: Minimum inhibitory concentration
  MIC: 16 µg/mL (≈ 25 µM)
[12]; D9960, read-out: Minimum inhibitory concentration
  MIC: > 128 µg/mL
[13]; [38]
  MIC: 64 µg/mL (≈ 99.9 µM)
[14]; Escherichia coli, read-out: Minimum inhibitory concentration
  MIC: 8 µg/mL (≈ 12.5 µM)
[15]; [38]
  MIC: 32 µg/mL (≈ 49.9 µM)
[16]; Streptococcus pneumoniae, read-out: Minimum inhibitory concentration
  MIC: 32 µg/mL (≈ 49.9 µM)
[17]; [38]
  MIC: 32 µg/mL (≈ 49.9 µM)
[18]; [41]
  MIC: 16 µg/mL (≈ 25 µM)
[19]; [38]
  MIC: 32 µg/mL (≈ 49.9 µM)
[20]; Morganella morganii, read-out: Minimum inhibitory concentration
  MIC: 128 µg/mL (≈ 200 µM)
[21]; [41]
  MIC: 8 µg/mL (≈ 12.5 µM)
[22]; [39]
  MIC: 16 µg/mL (≈ 25 µM)
[23]; [38]
  MIC: 32 µg/mL (≈ 49.9 µM)
[24]; [39]
  MIC: 16 µg/mL (≈ 25 µM)
[25]; [38]
  MIC: 128 µg/mL (≈ 200 µM)
[26]; Staphylococcus aureus, S13E, read-out: Minimum inhibitory concentration
  MIC: 16 µg/mL (≈ 25 µM)
[27]; [42]
  MIC: 32 µg/mL (≈ 49.9 µM)
[28]; [42]
  MIC: 64 µg/mL (≈ 99.9 µM)
[29]; [38]
  MIC: 32 µg/mL (≈ 49.9 µM)
[30]; [40]
  MIC: 32 µg/mL (≈ 49.9 µM)
[31]; [38]
  MIC: 64 µg/mL (≈ 99.9 µM)
[32]; [38]
  MIC: 128 µg/mL (≈ 200 µM)
[33]; [38]
  MIC: 16 µg/mL (≈ 25 µM)
[34]; [38]
  MIC: 32 µg/mL (≈ 49.9 µM)
[35]; [38]
  MIC: 32 µg/mL (≈ 49.9 µM)
[36]; [38]
  MIC: 128 µg/mL (≈ 200 µM)
[37]; [38]
  MIC: 16 µg/mL (≈ 25 µM)
